Laboratory results published in patent US20020192194A1, “Production and use of dopaminergic cells to treat dopaminergic deficiencies” (priority 2000, published 2002).

How the values were obtained:
hNT neurons [1] = assay: TH expression of hNT neurons treated with lithium chloride (TH immunoreactivity counts); format: cell-based, human; conditions: 1.0 mM, 5-day cultures
Method: A small-scale dose range study analyzed whether therapeutic (0.5-1.0 mM) and clinically toxic (2.0-6.0 mM) concentrations of LiCl enhanced TH expression in cells treated for 6 weeks with retinoic acid and then LiCl. The control and lithium-treated cultures (0.5, 1.0 and 3.0 mM) were scored for TH immunoreactivity, which was expressed as the number of TH-positive (TH+) cells/well. For TH immunohistochemistry the cells were rinsed in 0.1 M phosphate buffered saline (PBS), fixed in 4% paraformaldehyde, and then again rinsed in PBS. […] To determine the percentage of cells labeled by a particular antibody in representative experiments, the numbers of labeled and unlabeled cells were assessed in a blind-coded manner using a 20X objective and a photographic frame. […]
To investigate the effect of various doses of LiCl on tyrosine hydroxylase expression in 5 DIV hNT neurons, we determined the number of unlabeled and TH+ neurons in a blind coded manner using a 20X objective and a photographic frame (field=0.3 mm^2). […] The dose responsive tests were analyzed using a one-way analysis of variance (ANOVA) followed by post hoc comparisons using Bonferroni-Dunn analysis.

hNT neurons [2] = assay: Soma size and neurite outgrowth of TH+ hNT cells (image analysis); format: cell-based, human; conditions: 5 days in culture
Method: The same series of slides immunostained for TH were employed to measure the soma size (μm^2) and neurite outgrowth (μm) of appropriately 50 TH+ cells per representative culture experiment using a computerized image analysis program (Image-Pro Plus, Media Cybernetics, Inc., Silver Springs, Md.) at 20X objective. The results in the morphological assessment study are reported as mean ±SEM and were analyzed using Student's t-test.

| SMILES | numbers of TH+ hNT cells vs control (hNT neurons [1]) | neurite outgrowth vs control (hNT neurons [2]) | soma size vs control (hNT neurons [2]) |
| --- | --- | --- | --- |
| [Cl-].[K+] [KCl] | not significantly different | did not significantly differ from control values | not significantly different from control |
| [Cl-].[Na+] [NaCl] | not significantly different | did not significantly differ from control values | not significantly different from control |
